The record followed here is ChEMBL document CHEMBL3853332, “Pyrazolodiazepine derivatives with agonist activity toward Drosophila RYamide receptor” (Bioorg Med Chem Lett, 2016).

The source made the active and inactive calls. The calls are words filed in the database; no cut-off is given here. Peptide text beside a SMILES is read from it.

Assay [1] concerns the target T1, RYamide receptor (Drosophila melanogaster) (UniProt P25931).
T1 sequence (whole entry): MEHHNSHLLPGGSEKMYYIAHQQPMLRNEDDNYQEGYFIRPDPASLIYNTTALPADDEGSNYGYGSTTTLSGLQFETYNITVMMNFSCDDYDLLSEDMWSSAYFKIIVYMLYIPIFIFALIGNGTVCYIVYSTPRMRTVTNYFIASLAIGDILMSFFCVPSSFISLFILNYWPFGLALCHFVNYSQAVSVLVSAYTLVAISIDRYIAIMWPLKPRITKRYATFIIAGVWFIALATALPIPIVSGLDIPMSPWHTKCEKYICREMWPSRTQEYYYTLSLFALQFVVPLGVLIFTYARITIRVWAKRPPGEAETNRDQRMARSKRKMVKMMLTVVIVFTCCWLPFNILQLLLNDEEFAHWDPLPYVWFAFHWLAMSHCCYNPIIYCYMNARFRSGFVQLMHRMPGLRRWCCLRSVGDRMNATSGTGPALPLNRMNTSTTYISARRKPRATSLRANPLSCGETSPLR
Nature of the assay: Partial agonist activity at Drosophila melanogaster RYamide receptor expressed in wild type CHO-K1 cells assessed as increase in calcium level at 5 uM after 20 secs by luminescence assay relative to RYamide-1. The assay is classed as cell-based.

For the next assay, the target named is T2, RYamide receptor (Drosophila melanogaster, UniProt P25931).
T2 sequence (P25931 whole entry): T1 sequence (whole entry)
As to the kind of experiment: Agonist activity at Drosophila melanogaster RYamide receptor expressed in wild type CHO-K1 cells assessed as increase in calcium level after 20 secs by luminescence assay. The assay is classed as cell-based.

For assay [2], the target named is T1, RYamide receptor (Drosophila melanogaster). As to the kind of experiment: Agonist activity at Drosophila melanogaster RYamide receptor expressed in wild type CHO-K1 cells assessed as increase in calcium level at 0.01 mM after 20 secs by luminescence assay. The assay is classed as cell-based.
Assay [3] addresses T3, Neuropeptide F receptor (Drosophila melanogaster) (UniProt Q9VNM1).
T3 sequence (whole entry): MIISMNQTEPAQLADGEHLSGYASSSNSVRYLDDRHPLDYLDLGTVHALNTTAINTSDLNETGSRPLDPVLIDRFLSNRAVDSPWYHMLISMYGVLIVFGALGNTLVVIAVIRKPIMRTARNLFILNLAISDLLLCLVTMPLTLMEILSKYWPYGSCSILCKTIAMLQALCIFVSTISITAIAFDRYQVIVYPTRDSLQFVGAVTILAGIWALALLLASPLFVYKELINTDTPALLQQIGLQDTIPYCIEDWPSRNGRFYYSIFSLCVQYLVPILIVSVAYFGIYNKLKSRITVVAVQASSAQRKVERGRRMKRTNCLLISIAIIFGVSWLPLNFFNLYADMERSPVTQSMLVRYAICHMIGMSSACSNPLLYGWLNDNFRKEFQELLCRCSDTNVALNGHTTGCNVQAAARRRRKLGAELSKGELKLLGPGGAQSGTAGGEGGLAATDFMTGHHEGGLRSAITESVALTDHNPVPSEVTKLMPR
Nature of the assay: Agonist activity at Drosophila melanogaster NPFR1 expressed in wild type CHO-K1 cells assessed as increase in calcium level at low nanomolar concentration after 20 secs by luminescence assay. The assay is classed as functional, cell-based.

The term EC50 denotes the concentration that produces a half-maximal response. For the molecule `CC(C)CN1C[C@@H](CCCCN)N=C(SCCC(=O)NN)c2nn(CC(C)C)cc21`, in assay [1], the Activity was 40%. Further, the EC50 on RYamide receptor was found to be 20.9 µM. Further, in assay [2], the outcome was Active.
`Cc1noc(C)c1CN1CC(Cc2ccccc2)NC(=O)c2nn(CCC3CCN(C(=O)OC(C)(C)C)CC3)cc21` (stereo not drawn): the Activity in assay [1] was 40%. Also, the EC50 on RYamide receptor is 5.9 µM. The outcome in assay [2] was Active.
On the same counts, the results for `CC(C)CN1C[C@H](CCCCN)N=C(SCCC(N)=O)c2nn(CC(C)C)cc21` are 40%, 6.1 µM and “Active”.
`CSCC[C@H](NC(=O)[C@@H](NC(=O)[C@H](CC(N)=O)NC(=O)[C@@H](NC(=O)[C@H](CC(=O)O)NC(=O)[C@H](CC(N)=O)NC(=O)[C@H](CCCCN)NC(=O)[C@H](CCCNC(=N)N)NC(=O)[C@@H]1CCCN1C(=O)[C@@H]1CCCN1C(=O)[C@H](CCCNC(=N)N)NC(=O)[C@H](CO)NC(=O)[C@H](CC(N)=O)NC(=O)[C@@H](N)CO)C(C)C)[C@@H](C)O)C(=O)N[C@@H](C)C(=O)N[C@@H](CC(=O)O)C(=O)N[C@@H](C)C(=O)N[C@@H](Cc1ccc(O)cc1)C(=O)N[C@@H](CCCCN)C(=O)N[C@@H](Cc1ccccc1)C(=O)N[C@@H](CC(C)C)C(=O)N[C@@H](CCC(N)=O)C(=O)N[C@@H](CC(=O)O)C(=O)N[C@@H](CC(C)C)C(=O)N[C@@H](CC(=O)O)C(=O)N[C@H](C(=O)N[C@@H](Cc1ccc(O)cc1)C(=O)N[C@@H](Cc1ccc(O)cc1)C(=O)NCC(=O)N[C@@H](CC(=O)O)C(=O)N[C@@H](CCCNC(=N)N)C(=O)N[C@@H](C)C(=O)N[C@@H](CCCNC(=N)N)C(=O)N[C@H](C(=O)N[C@@H](CCCNC(=N)N)C(=O)N[C@@H](Cc1ccccc1)C(=O)O)C(C)C)[C@@H](C)O` (H-SNSRPPRKNDVNTMADAYKFLQDLDTYYGDRARVRF-OH): the outcome in assay [3] was Active.
Turning to `CC(C)CN1C[C@H](CCCCN)NC(=S)c2nn(CC(C)C)cc21`, the Activity in assay [1] was 40%. On RYamide receptor, the EC50 came out at 6.8 µM. Moreover, in assay [2], the outcome was Active.
